Measured values taken from paper PMC4780864, “Family-wide Structural Analysis of Human Numb-Associated Protein Kinases” (Structure(London, England:1993), 2016).

How the values were obtained:
Assay in all cases: biochemical
[1] = target: T1, BIKE (Homo sapiens, UniProt Q9NSY1); parameters: Thermal shift assay (DSF, SYPRO Orange), 2 uM kinase domain, mean delta Tm of triplicates versus DMSO; conditions: read-out: BIKE
T1 construct: gene BMP2K; catalytic domain-containing construct
Method: (§1) All measurements were performed in triplicate and mean values were reported for all compounds (Table S1). […] However, NAKs are often omitted from selectivity panels, including commercial screens.

[2] = target: T2, GAK (Homo sapiens, UniProt O14976); parameters: Thermal shift assay (DSF, SYPRO Orange), 2 uM kinase domain, mean delta Tm of triplicates versus DMSO; conditions: read-out: GAK
T2 construct: catalytic domain-containing construct
T2 sequence (O14976 1-1311): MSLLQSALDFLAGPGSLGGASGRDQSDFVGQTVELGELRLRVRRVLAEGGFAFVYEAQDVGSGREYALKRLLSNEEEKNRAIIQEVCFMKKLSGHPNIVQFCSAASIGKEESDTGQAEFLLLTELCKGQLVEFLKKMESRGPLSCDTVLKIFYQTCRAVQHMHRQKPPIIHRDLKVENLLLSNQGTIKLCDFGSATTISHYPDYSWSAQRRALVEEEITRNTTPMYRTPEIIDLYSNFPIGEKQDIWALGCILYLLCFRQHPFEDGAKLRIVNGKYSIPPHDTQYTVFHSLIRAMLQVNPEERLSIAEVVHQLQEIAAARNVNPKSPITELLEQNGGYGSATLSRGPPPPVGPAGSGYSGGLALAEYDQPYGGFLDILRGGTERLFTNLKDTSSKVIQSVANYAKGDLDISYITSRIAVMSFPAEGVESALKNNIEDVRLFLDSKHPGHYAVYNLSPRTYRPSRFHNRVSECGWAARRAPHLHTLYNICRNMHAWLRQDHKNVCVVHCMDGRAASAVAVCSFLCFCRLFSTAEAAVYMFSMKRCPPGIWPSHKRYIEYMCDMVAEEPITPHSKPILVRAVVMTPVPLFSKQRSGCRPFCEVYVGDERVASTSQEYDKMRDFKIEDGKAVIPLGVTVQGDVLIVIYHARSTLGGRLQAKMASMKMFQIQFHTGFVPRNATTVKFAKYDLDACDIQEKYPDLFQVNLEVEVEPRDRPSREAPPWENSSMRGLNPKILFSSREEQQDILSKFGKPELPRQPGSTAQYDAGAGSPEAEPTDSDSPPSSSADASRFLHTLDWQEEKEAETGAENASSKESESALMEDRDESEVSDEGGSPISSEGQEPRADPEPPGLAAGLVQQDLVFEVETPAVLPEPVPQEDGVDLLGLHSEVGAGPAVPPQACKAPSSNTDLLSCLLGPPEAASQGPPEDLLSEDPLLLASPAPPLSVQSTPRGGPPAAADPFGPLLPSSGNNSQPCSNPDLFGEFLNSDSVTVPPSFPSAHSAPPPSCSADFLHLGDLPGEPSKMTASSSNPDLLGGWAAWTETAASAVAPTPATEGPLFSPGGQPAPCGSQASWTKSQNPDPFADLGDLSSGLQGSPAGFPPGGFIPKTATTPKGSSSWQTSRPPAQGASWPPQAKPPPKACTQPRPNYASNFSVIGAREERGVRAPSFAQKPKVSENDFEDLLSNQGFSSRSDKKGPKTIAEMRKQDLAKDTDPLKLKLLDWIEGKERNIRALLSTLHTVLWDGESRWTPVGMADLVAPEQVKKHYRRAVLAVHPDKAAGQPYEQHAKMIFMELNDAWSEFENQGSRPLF
Method: as §1

[3] = target: T3, MPSK1 (Homo sapiens, UniProt O75716); parameters: Thermal shift assay (DSF, SYPRO Orange), 2 uM kinase domain, mean delta Tm of triplicates versus DMSO; conditions: read-out: MPSK1
T3 construct: gene STK16; catalytic domain-containing construct
Method: as §1

[4] = target: AAK1 (Homo sapiens, UniProt Q2M2I8); parameters: kinase domain; Thermal shift assay (DSF, SYPRO Orange), 2 uM kinase domain, mean delta Tm of triplicates versus DMSO; conditions: read-out: AAK1
Method: as §1

T3 sequence (O75716 whole entry, the tested form may be a part): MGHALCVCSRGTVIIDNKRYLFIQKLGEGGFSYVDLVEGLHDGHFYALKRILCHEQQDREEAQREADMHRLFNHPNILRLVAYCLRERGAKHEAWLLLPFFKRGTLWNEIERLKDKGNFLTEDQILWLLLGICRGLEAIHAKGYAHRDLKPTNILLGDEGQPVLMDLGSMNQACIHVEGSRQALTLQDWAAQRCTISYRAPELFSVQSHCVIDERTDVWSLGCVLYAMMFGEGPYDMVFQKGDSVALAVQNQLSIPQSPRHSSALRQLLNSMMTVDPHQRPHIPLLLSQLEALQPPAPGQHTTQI
Chain of AAK1 (Q2M2I8 27-365 limits assumed): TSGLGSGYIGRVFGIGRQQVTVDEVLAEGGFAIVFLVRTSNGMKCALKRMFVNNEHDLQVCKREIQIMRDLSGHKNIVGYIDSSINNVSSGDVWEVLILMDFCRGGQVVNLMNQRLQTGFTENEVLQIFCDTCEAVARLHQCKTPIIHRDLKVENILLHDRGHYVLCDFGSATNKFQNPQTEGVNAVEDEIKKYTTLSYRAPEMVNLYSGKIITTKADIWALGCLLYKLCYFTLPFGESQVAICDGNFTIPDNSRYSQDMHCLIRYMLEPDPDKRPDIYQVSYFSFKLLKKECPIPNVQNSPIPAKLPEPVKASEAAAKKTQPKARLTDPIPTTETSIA
T1 sequence (Q9NSY1 whole entry, the tested form may be a part): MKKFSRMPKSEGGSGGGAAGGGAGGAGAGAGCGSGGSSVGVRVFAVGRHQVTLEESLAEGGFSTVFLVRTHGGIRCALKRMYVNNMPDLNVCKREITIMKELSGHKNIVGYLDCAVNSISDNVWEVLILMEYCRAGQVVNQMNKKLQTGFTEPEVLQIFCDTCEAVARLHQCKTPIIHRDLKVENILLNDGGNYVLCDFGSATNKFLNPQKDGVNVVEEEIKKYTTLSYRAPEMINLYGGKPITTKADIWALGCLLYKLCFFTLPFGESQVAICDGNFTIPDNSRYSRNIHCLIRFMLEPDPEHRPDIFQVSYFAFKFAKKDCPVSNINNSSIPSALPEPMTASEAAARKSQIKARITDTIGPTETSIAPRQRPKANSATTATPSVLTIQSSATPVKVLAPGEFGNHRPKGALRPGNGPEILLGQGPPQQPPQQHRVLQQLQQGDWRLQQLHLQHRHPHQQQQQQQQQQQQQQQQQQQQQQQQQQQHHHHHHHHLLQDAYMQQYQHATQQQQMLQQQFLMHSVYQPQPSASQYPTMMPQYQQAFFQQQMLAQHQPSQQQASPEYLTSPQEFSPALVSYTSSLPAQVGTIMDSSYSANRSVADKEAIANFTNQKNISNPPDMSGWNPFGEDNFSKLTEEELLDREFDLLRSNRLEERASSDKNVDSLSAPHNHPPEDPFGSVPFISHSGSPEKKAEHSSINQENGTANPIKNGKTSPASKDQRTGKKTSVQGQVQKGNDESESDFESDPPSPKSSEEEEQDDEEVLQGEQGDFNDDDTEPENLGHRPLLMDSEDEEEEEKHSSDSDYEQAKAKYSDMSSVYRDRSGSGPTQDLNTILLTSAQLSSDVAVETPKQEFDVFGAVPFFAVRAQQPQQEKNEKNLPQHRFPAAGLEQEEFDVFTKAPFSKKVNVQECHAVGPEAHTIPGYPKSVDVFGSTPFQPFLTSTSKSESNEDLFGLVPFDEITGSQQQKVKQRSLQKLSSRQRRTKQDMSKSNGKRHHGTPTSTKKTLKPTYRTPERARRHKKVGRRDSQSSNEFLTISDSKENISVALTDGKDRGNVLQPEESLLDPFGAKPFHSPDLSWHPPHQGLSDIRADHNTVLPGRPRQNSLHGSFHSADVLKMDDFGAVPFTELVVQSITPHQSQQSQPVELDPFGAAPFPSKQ

Row | Structure (SMILES) | ΔTm at 12.5 µM [1] | ΔTm at 12.5 µM [2] | ΔTm at 12.5 µM [3] | ΔTm at 12.5 µM [4]
1 | O=C(NC[C@H](O)CO)c1ccncc1Nc1ccc(I)cc1F [Pimasertib] | 0.36 °C | -0.59 °C | 0.313 °C | 0.0267 °C
2 | C[C@@]1(C(=O)Nc2ccc(F)nc2)CCCN1c1nc(Nc2cc(C3CC3)n[nH]2)c2cccn2n1 [BMS-754807] | 2.91 °C | -0.337 °C | 5.21 °C | 0.483 °C
3 | C=CCn1c(=O)c2cnc(Nc3ccc(N4CCN(C)CC4)cc3)nc2n1-c1cccc(C(C)(C)O)n1 [MK-1775] | 4.38 °C | 5.08 °C | 1.18 °C | 4.03 °C
4 | Cn1cc(C2=C(c3cn(C4CCN(Cc5ccccn5)CC4)c4ccccc34)C(=O)NC2=O)c2ccccc21 [Enzastaurin] | 1.79 °C | -0.347 °C | 1.94 °C | 0.7 °C
5 | CC[C@@H]1C(=O)N(C)c2cnc(Nc3ccc(C(=O)NC4CCN(C)CC4)cc3OC)nc2N1C1CCCC1 [BI 2536] |  | 4.13 °C |  | 
6 | Cc1cc(Nc2nc(N[C@@H](C)c3ncc(F)cn3)ncc2Cl)[nH]n1 [AZD1480] | 6.41 °C | 0.667 °C | 5.04 °C | 4.44 °C
7 | CC(C)(C)c1cc(NC(=O)Nc2ccc(-c3cn4c(n3)sc3cc(OCCN5CCOCC5)ccc34)cc2)no1 [Quizartinib] | 0.54 °C | 0.0333 °C | 0.333 °C | 0.43 °C
8 | C=CC(=O)N1CCC[C@@H](n2nc(-c3ccc(Oc4ccccc4)cc3)c3c(N)ncnc32)C1 [Ibrutinib] | 0.397 °C | -0.293 °C | 1.76 °C | 0.0167 °C
9 | Cc1nc(NC(=O)N2CCC[C@H]2C(N)=O)sc1-c1ccnc(C(C)(C)C(F)(F)F)c1 [BYL719] | 3.88 °C | 2.41 °C | 0.743 °C | 4.38 °C
10 | N#CCNC(=O)c1ccc(-c2ccnc(Nc3ccc(N4CCOCC4)cc3)n2)cc1 [Momelotinib] | 15 °C | 7.03 °C | 11.1 °C | 14.6 °C
11 | CN(C)C[C@@H]1CCn2cc(c3ccccc32)C2=C(C(=O)NC2=O)c2cn(c3ccccc23)CCO1 [Ruboxistaurin] | 9.4 °C | 1.03 °C | 1.86 °C | 5.19 °C
12 | C=CCN(/C=C1/C(=O)O[C@H](COC)[C@@]2(C)C1=C(O)C(=O)C1=C2[C@H](OC(C)=O)C[C@]2(C)C(=O)CC[C@@H]12)CC=C [Sonolisib] | -1.36 °C | 0.82 °C | 0.147 °C | -0.183 °C
13 | CCOc1cc2ncc(C#N)c(Nc3ccc(OCc4ccccn4)c(Cl)c3)c2cc1NC(=O)/C=C/CN(C)C [Neratinib] | 1.97 °C | 2.52 °C | 0.927 °C | 0.98 °C
14 | O=c1sn(-c2cccc3ccccc23)c(=O)n1Cc1ccccc1 [Tideglusib] | 0.245 °C | -0.487 °C | 0.443 °C | 0.24 °C
15 | CCc1cncnc1N1CCN(Cc2nc3ccc(C(F)(F)F)cc3[nH]2)CC1 [PF-04708671] | 0.45 °C | -0.243 °C | 1.04 °C | 0.437 °C
16 | CCN(CCO)CCCOc1ccc2c(Nc3cc(CC(=O)Nc4cccc(F)c4)[nH]n3)ncnc2c1 [AZD1152-HQPA] | 2.02 °C | -0.54 °C | 0.953 °C | 
17 | CS(=O)(=O)N1CCN(Cc2cc3nc(-c4cccc5[nH]ncc45)nc(N4CCOCC4)c3s2)CC1 [Pictilisib] | 4.67 °C |  | 5.92 °C | 2.3 °C
